Data as given in ChEMBL document CHEMBL1125055, “Tricyclic heteroaromatic systems. [1]benzopyranopyrrol-4-ones and [1]benzopyrano-1,2,3-triazol-4-ones as benzodiazepine receptor ligands. Synthesis and structure-activity relationships” (J Med Chem, 1990).

Biological target: GABA-A receptor; anion channel (Bos taurus) (UniProt P10063+P08220+P20237+P08219+P10064+P22300)
Assay: Percent inhibition of [3H]flunitrazepam binding to GABA-A Benzodiazepine receptor of bovine brain membranes at 34 uM
Format: cell membranes

Compared with `Cc1cccc(-n2nnc3c(=O)oc4ccccc4c32)c1`, `O=c1oc2ccccc2c2c1nnn2-c1ccccc1` is lower in inhibition: 18% for the first, 0% for the second.

Compound `O=c1oc2ccccc2c2c1cc(-c1ccccc1)n2-c1ccccc1` has an inhibition of 30%.

Biological target: GABA-A receptor; anion channel
Assay: Affinity to displace [3H]flunitrazepam from Benzodiazepine receptor in bovine brain membrane
Format: cell membranes

Going from `COc1cccc(-n2cc(-c3ccccc3)c3c(=O)oc4ccccc4c32)c1` to `Cc1cccc(-n2cc(-c3ccccc3)c3c(=O)oc4ccccc4c32)c1`, the IC50 falls from 48 nM to 25 nM (1.9-fold).

First: COc1cccc(-n2nc(C)c3c(O)nc4ccccc4c32)c1
Second: Cc1nn(-c2cccc(Br)c2)c2c1c(O)nc1ccccc12
The IC50 of the first is 3-fold higher: 7500 nM for the first, 2500 nM for the second.

`Cc1cccc(-n2nc(-c3ccccc3)c3c(=O)n(C)c4ccccc4c32)c1` and `Cn1c(=O)c2c(-c3ccccc3)nn(-c3cccc(Cl)c3)c2c2ccccc21` are within 1.5-fold of each other in IC50: 90 nM for the first, 70 nM for the second.

Compared with `O=c1oc2ccccc2c2c1c(-c1ccccc1)cn2-c1ccc(Cl)cc1`, `Cc1ccc(-n2cc(-c3ccccc3)c3c(=O)oc4ccccc4c32)cc1` is 4.3-fold higher in IC50: 40 nM for the first, 172 nM for the second. The first is the more potent here.

`CN1C(=O)CN=C(c2ccccc2)c2cc(Cl)ccc21` [DIAZEPAM] and `O=c1oc2ccccc2c2c1c(-c1ccccc1)cn2-c1cccc(Cl)c1` are within 1.5-fold of each other in IC50: 13 nM for the first, 10 nM for the second.

`O=c1oc2ccccc2c2c1c(-c1ccccc1)cn2-c1ccccc1` and `COc1ccc(-n2cc(-c3ccccc3)c3c(=O)oc4ccccc4c32)cc1` are within 1.5-fold of each other in IC50: 65 nM for the first, 62 nM for the second.

First: Cc1cc(C)cc(-n2cc(-c3ccccc3)c3c(=O)oc4ccccc4c32)c1
Second: COC(=O)c1cc2c(cn1)[nH]c1ccccc12 [BETA-CCM]
The IC50 of the first is 1.9-fold lower: 8.6 nM for the first, 16 nM for the second. The first is the more potent here.
